Measured values from PMC8587849, “Antimicrobial and Anticancer Application of Silver(I) Dipeptide Complexes” (Molecules, 2021).
Where two headings read alike, the source gives them in different places. Where a SMILES comes first, the peptide text is derived from it.

Assays:
HeLa = assay: MTS antiproliferative assay; format: cell-based, human; details: 72 h
Procedure: (§1) After 72 h of incubation, 10 µL of MTS was added to each well. […] IC50 values were calculated from MTS analyses.

MCF-7 = assay: MTS antiproliferative assay; format: cell-based, human; details: 72 h
Procedure: as §1

BJ-5ta = assay: MTS assay on fibroblasts; format: cell-based; details: BJ-5ta human skin fibroblasts, 72 h
Procedure: as §1

BLM = assay: MTS antiproliferative assay; format: cell-based, human; details: BLM; MTS, 72 h
Procedure: (§2) Cells were maintained in standard conditions with an atmosphere containing 5% CO2 at 37 °C.
as §1

HCT116 = assay: MTS antiproliferative assay; format: cell-based, human; details: 72 h
Procedure: as §2, §1

MDA-MB-231 = assay: MTS antiproliferative assay; format: cell-based, human; details: 72 h
Procedure: as §2, §1

Jurkat = assay: MTS antiproliferative assay; format: cell-based, human; details: 72 h
Procedure: as §2, §1

Candida albicans SC 5314 = assay: Antifungal activity (yeast), macrodilution method; format: cell-based; details: C. albicans
Procedure: (§3) Cultures of bacteria (in Mueller-Hinton broth, MHB) and yeasts (in Sabouraud’s growth medium, SB) were incubated under shaking (250 rpm) at 37 °C. The growth of bacteria and yeasts was evaluated by measuring the absorbance of the growing cultures (A550) until the cultures reached the stationary growth phase. […] During culturing, the diameters of growing fungal colonies were measured at regular intervals [71, 72]. […] The final concentration of DMSO never exceeded 1.0 vol. % in the control or treated samples. […] The IC50 and MIC90 with respect to MIC80 values were evaluated from toxicity curves.

A.flavus = assay: Antifungal activity (filamentous fungi); format: cell-based; details: read-out: IC50 and MIC100 (class symbol)
Procedure: as §3

[1] = system: Staphylococcus epidermidis CCM 7221; assay: Antibacterial activity, macrodilution method; format: cell-based; details: S.epidermidis; free ligands
Procedure: (§4) Cultures of bacteria (in Mueller-Hinton broth, MHB) and yeasts (in Sabouraud’s growth medium, SB) were incubated under shaking (250 rpm) at 37 °C. The growth of bacteria and yeasts was evaluated by measuring the absorbance of the growing cultures (A550) until the cultures reached the stationary growth phase. […] The final concentration of DMSO never exceeded 1.0 vol. % in the control or treated samples. […] The IC50 and MIC90 with respect to MIC80 values were evaluated from toxicity curves.

[2] = system: Rhizopus oryzae CCM F-8284; assay: Antifungal activity (filamentous fungi), macrodilution on solidified PDA; format: cell-based
Procedure: as §3

[3] = system: Microsporum gypseum CCM F-8342; assay: as above; format: cell-based; details: M.gypseum, read-out: IC50 and MIC100 (class symbol)
Procedure: as §3

[4] = system: Staphylococcus aureus CCM 3953; assay: Antibacterial activity, macrodilution method; format: cell-based; details: S. aureus; free ligands
Procedure: as §4

[5] = system: Escherichia coli (E. coli) CCM 3988; assay: Antibacterial activity, macrodilution method; format: cell-based; details: free ligands
Procedure: as §4

[6] = system: Alternaria alternata CCM F-128; assay: Antifungal activity (filamentous fungi), macrodilution on solidified PDA; format: cell-based; details: A. alternata, read-out: IC50 and MIC100 (class symbol)
Procedure: as §3

[7] = system: Candida parapsilosis ATCC 22019; assay: Antifungal activity (yeast), macrodilution method; format: cell-based; details: C. parapsilosis
Procedure: as §4

[8] = system: methicillin-resistant Staphylococcus aureus L12; assay: Antibacterial activity, macrodilution method; format: cell-based; details: S. aureus L12; free ligands
Procedure: as §4

[9] = read-out: IC50 and MIC100 (class symbol)

Compound | IC50 (HeLa) | IC50 (MCF-7) | IC50 (BJ-5ta) | IC50 (BLM) | IC50 (HCT116) | IC50 (MDA-MB-231) | IC50 (Jurkat) | IC50 and MIC80 (class symbol) (Candida albicans SC 5314) | IC50 and MIC90 (class symbol) [1] | IC50 and MIC90 (class symbol) [4] | IC50 and MIC90 (class symbol) [5] | IC50 and MIC80 (class symbol) [7] | IC50 and MIC90 (class symbol) [8] | IC50 (A.flavus) | IC50 [2, 9] | IC50 [3] | IC50 [6] | further results
O=[N+]([O-])[O-].[Ag+] [AgNO3, silver(I) nitrate] | 45.3 µM | 13.2 µM | 24.3 µM | 31.5 µM | 21.8 µM | 25.9 µM | 6.6 µM |  |  |  |  |  |  |  |  |  |  | 
C[C@H](N)C(=O)O [Ala, alanine, reference compound] |  |  |  |  |  |  |  | N (N- not active IC50 and MIC values > 2 mmol.l-1) | N (N- not active IC50 and MIC90 values > 2 mmol.l-1) | N (N- not active IC50 and MIC90 values > 2 mmol.l-1) | N (N- not active IC50 and MIC90 values > 2 mmol.l-1) | N (N- not active IC50 and MIC values > 2 mmol.l-1) | N (N- not active IC50 and MIC90 values > 2 mmol.l-1) |  |  |  |  | IC50 (A.flavus; Aspergillus flavus): > 2000 µM; IC50 ([2]; Rhizopus arrhizus, CCMF8284, read-out: IC50 and MIC100 (class symbol)): > 2000 µM; IC50 ([3]; Nannizzia gypsea, CCMF8342): > 2000 µM; IC50 ([6]; Alternaria alternata, CCMF128): > 2000 µM
NCC(=O)O [Gly, glycine, reference compound] |  |  |  |  |  |  |  | N (N- not active IC50 and MIC values > 2 mmol.l-1) | N (N- not active IC50 and MIC90 values > 2 mmol.l-1) | N (N- not active IC50 and MIC90 values > 2 mmol.l-1) | N (N- not active IC50 and MIC90 values > 2 mmol.l-1) | N (N- not active IC50 and MIC values > 2 mmol.l-1) | N (N- not active IC50 and MIC90 values > 2 mmol.l-1) | > 2000 µM | > 2000 µM | > 2000 µM | > 2000 µM | 
NCC(=O)N[C@@H](CC(=O)O)C(=O)O [H2GlyAsp, Glycyl-L-Aspartic acid, reference compound] (H-Gly-Asp-OH) | > 300 µM | > 300 µM | > 300 µM | > 300 µM | > 300 µM | > 300 µM | > 300 µM | N (N- not active IC50 and MIC values > 2 mmol.l-1) | N (N- not active IC50 and MIC90 values > 2 mmol.l-1) | N (N- not active IC50 and MIC90 values > 2 mmol.l-1) | N (N- not active IC50 and MIC90 values > 2 mmol.l-1) | N (N- not active IC50 and MIC values > 2 mmol.l-1) | N (N- not active IC50 and MIC90 values > 2 mmol.l-1) | > 2000 µM | > 2000 µM | > 2000 µM | > 2000 µM | 
